T1: Beta-glucosidase (Prunus avium) (UniProt Q43014)
T1 sequence (whole entry): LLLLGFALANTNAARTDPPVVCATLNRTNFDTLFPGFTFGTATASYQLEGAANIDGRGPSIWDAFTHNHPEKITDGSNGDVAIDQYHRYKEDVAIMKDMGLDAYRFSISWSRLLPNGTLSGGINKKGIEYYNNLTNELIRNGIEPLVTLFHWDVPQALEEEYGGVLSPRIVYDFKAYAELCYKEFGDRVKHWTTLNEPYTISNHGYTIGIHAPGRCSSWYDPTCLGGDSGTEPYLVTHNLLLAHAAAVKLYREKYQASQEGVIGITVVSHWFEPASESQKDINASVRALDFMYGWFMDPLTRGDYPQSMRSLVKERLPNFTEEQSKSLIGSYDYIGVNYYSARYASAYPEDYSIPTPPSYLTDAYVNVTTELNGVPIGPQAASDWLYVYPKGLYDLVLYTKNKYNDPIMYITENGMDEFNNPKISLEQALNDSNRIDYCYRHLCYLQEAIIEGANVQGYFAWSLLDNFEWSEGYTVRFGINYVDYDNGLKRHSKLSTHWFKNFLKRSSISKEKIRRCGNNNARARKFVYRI


What was measured:
[1] = Ratio of binding affinity towards E-coli beta - galactosidase to that of km/kcat was determined
[2] = Ratio of binding affinity towards E-coli beta - galactosidase to that of Michaelis-Menten constant against E-coli beta-galactosidase
[3] = target: T1, Beta-glucosidase (Prunus avium); test: (§1) Kinetic parameter Km/Kcat against Beta-glucosidase; set-up: unit not given here; conditions: Prunus dulcis
Beta-galactosidase [4] = target: T2, Beta-galactosidase (Escherichia coli, UniProt Q8VNN2); test: Compound was evaluated for its binding affinity towards E-coli Beta-galactosidase
[5] = target: T1, Beta-glucosidase (Prunus avium); test: as §1; conditions: Prunus dulcis
Beta-galactosidase [6] = target: T2, Beta-galactosidase; test: Compound was evaluated for its binding affinity towards Beta-galactosidase
[7] = substrate: OC[C@H]1OC[C@@H](O)[C@H]1O; test: (§2) Michaelis-Menten constant against sweet almond Beta-glucosidase
[8] = substrate: OC[C@H]1OC[C@H](O)[C@@H](O)[C@H]1O; test: as §2
[9] = substrate: O[C@@H]1COC[C@H]1O; test: as §2
[10] = substrate: O[C@H]1[C@H](O)COC[C@@H]1O; test: as §2
[11] = substrate: OC[C@H]1OC[C@H](O)[C@@H](O)[C@@H]1O; test: as §2
[12] = substrate: OC[C@H]1OC[C@@H](O)[C@@H]1O; test: as §2

T2 sequence (Q8VNN2 whole entry): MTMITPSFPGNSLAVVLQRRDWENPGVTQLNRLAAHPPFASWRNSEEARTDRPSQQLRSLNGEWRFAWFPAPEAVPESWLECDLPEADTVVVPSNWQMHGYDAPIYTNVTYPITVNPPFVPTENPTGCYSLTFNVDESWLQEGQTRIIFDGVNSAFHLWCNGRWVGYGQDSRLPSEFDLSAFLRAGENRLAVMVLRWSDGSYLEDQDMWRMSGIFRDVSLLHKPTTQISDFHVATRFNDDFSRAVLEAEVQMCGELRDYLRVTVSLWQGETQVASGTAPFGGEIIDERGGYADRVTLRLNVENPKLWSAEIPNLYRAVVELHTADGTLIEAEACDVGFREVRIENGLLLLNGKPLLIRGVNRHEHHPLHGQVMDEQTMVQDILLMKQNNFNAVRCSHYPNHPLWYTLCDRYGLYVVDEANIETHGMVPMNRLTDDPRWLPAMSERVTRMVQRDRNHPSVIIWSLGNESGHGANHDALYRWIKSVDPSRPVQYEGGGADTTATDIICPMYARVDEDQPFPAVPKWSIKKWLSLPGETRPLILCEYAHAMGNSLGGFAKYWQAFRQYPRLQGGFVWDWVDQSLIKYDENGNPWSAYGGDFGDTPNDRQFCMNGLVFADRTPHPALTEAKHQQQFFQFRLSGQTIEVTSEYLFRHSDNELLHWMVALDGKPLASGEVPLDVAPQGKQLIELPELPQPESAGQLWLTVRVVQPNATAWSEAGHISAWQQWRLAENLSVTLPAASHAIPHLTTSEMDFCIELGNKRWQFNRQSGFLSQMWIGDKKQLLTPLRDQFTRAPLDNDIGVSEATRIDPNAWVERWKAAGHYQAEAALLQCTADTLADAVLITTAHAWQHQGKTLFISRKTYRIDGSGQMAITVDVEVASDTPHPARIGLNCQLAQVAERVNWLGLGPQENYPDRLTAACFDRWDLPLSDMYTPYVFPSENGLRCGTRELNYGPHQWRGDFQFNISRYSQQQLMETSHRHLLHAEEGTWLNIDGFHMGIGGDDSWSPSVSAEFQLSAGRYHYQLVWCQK

Ki/(Km/Kcat) [1] | Ki/Km [2] | Km/Kcat [3] | Ki (Beta-galactosidase [4]) [mM] | Molecule | other results
630000 | 1.2 | 6.7e-05 |  | C[C@H]1OC[C@H](O)[C@@H](O)[C@H]1O | 
1e+08 | 39.6 |  | 1.9 | OC[C@H]1OC[C@@H](O)[C@H]1O | 
77 | 5.1 | 1 | 77 | O[C@@H]1COC[C@H]1O | 
330 | 2.2 | 0.21 | 71 | OC[C@H]1OC[C@H](O)[C@@H](O)[C@@H]1O [1,5-Anhydrosorbitol] | Km/Kcat [5]: 0.019
85 | 15.6 | 1 | 85 | O[C@H]1[C@H](O)COC[C@@H]1O | 
240 | 1.6 |  |  | OC[C@H]1OC[C@@H](O)[C@@H]1O | Ki (Beta-galactosidase [6]): 51 mM
3.9e+08 | 154 |  | 7.4 | OC[C@H]1OC[C@H](O)[C@@H](O)[C@H]1O | 
 |  |  |  | Beta-glucosidase (Prunus avium), Q43014 (protein) LLLLGFALANTNAARTDPPVVCATLNRTNFDTLFPGFTFGTATASYQLEGAANIDGRGPSIWDAFTHNHPEKITDGSNGDVAIDQYHRYKEDVAIMKDMGLDAYRFSISWSRLLPNGTLSGGINKKGIEYYNNLTNELIRNGIEPLVTLFHWDVPQALEEEYGGVLSPRIVYDFKAYAELCYKEFGDRVKHWTTLNEPYTISNHGYTIGIHAPGRCSSWYDPTCLGGDSGTEPYLVTHNLLLAHAAAVKLYREKYQASQEGVIGITVVSHWFEPASESQKDINASVRALDFMYGWFMDPLTRGDYPQSMRSLVKERLPNFTEEQSKSLIGSYDYIGVNYYSARYASAYPEDYSIPTPPSYLTDAYVNVTTELNGVPIGPQAASDWLYVYPKGLYDLVLYTKNKYNDPIMYITENGMDEFNNPKISLEQALNDSNRIDYCYRHLCYLQEAIIEGANVQGYFAWSLLDNFEWSEGYTVRFGINYVDYDNGLKRHSKLSTHWFKNFLKRSSISKEKIRRCGNNNARARKFVYRI | Km [7]: 15.7 mM; Km [8]: 15.7 mM; Km [9]: 3.1 mM; Km [10]: 3.1 mM; Km [11]: 2500 µM; Km [12]: 2500 µM
